Experiments:
Type in all cases: in vivo
Abutilon theophrasti = assay: Weeding effect in post-emergence stage (greenhouse pot spray)
Outline: (§1)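 Post-emergence foliar spray on 2-3 leaf greenhouse pot plants at 15 to 500 g a.i./ha with methyl oleate emulsifiable concentrate (1.5 liter/ha) added; growth control by fresh weight after 3 weeks.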

Digitaria sanguinalis = assay: as above
Outline: as §1

Echinochloa crusgalli = assay: as above
Outline: as §1

Setaria viridis = assay: as above
Outline: as §1

Amaranthus retroflexus = assay: as above
Outline: as §1

Stellaria media = assay: as above
Outline: as §1

weeds = assay: Actual control effects and combined effects of mixtures of active ingredients (i) and (ii), stem-leaf treatment, Gowing method; conditions: stem-leaf treatment, 20 days
[1] = test system: Indica rice (Huanghuazhan); assay: Safety test of control experiments on rice
Description: (§2) The activity level criteria for plant damage (i.e., growth control rate) are as follows: Comparative Experiments: [table]

[2] = test system: Japonica rice (Huaidao No. 5); assay: Safety test of control experiments on rice
Description: as §2

[3] = test system: rice and Echinochloa crusgali; assay: Herbicide selection index between rice and Echinochloa crusgali; conditions: average dose causing 10% phytotoxicity to rice divided by average dose causing 90% control efficiency to Echinochloa crusgali

Compound: CSc1c(C(F)(F)F)ccc(C(=O)Nc2nnc(C)o2)c1F [Compound 1-1]
- Abutilion theophrasti (activity level) (Abutilon theophrasti; Table 2, dose 60 g a.i./ha): 2 (Level 2: growth control rate is greater than or equal to 20% and less than 40%)
- Abutilion theophrasti (activity level) (Abutilon theophrasti; Table 2, dose 125 g a.i./ha): 4 (Level 4: growth control rate is greater than or equal to 60% and less than 85%)
- Abutilion theophrasti (activity level) (Abutilon theophrasti; Table 2, dose 250 g a.i./ha): 4 (Level 4: growth control rate is greater than or equal to 60% and less than 85%)
- Abutilion theophrasti (activity level) (Abutilon theophrasti; Table 2, dose 500 g a.i./ha): 4 (Level 4: growth control rate is greater than or equal to 60% and less than 85%)
- Abutilon theophrasti (activity level) (Abutilon theophrasti; Table 3, dose 60 g a.i./ha): 2 (Level 2: growth control rate is greater than or equal to 20% and less than 40%)
- Abutilon theophrasti (activity level) (Abutilon theophrasti; Table 3, dose 120 g a.i./ha): 4 (Level 4: growth control rate is greater than or equal to 60% and less than 85%)
- Digitaria sanguinalis (activity level) (Digitaria sanguinalis; Table 2, dose 60 g a.i./ha): 1 (Level 1: growth control rate is greater than or equal to 5% and less than 20%)
- Digitaria sanguinalis (activity level) (Digitaria sanguinalis; Table 2, dose 125 g a.i./ha): 2 (Level 2: growth control rate is greater than or equal to 20% and less than 40%)
- Digitaria sanguinalis (activity level) (Digitaria sanguinalis; Table 2, dose 250 g a.i./ha): 3 (Level 3: growth control rate is greater than or equal to 40% and less than 60%)
- Digitaria sanguinalis (activity level) (Digitaria sanguinalis; Table 2, dose 500 g a.i./ha): 4 (Level 4: growth control rate is greater than or equal to 60% and less than 85%)
- Digitaria sanguinahs (activity level) (Digitaria sanguinalis; Table 3, dose 7.5 g a.i./ha): 0 (Level 0: growth control rate is less than 5%)
- Digitaria sanguinahs (activity level) (Digitaria sanguinalis; Table 3, dose 15 g a.i./ha): 0 (Level 0: growth control rate is less than 5%)
- Digitaria sanguinahs (activity level) (Digitaria sanguinalis; Table 3, dose 30 g a.i./ha): 1 (Level 1: growth control rate is greater than or equal to 5% and less than 20%)
- Digitaria sanguinahs (activity level) (Digitaria sanguinalis; Table 3, dose 60 g a.i./ha): 1 (Level 1: growth control rate is greater than or equal to 5% and less than 20%)
- Digitaria sanguinahs (activity level) (Digitaria sanguinalis; Table 3, dose 120 g a.i./ha): 2 (Level 2: growth control rate is greater than or equal to 20% and less than 40%)
- Echinochloa crusgah (activity level) (Echinochloa crusgalli; Table 2, dose 60 g a.i./ha): 2 (Level 2: growth control rate is greater than or equal to 20% and less than 40%)
- Echinochloa crusgah (activity level) (Echinochloa crusgalli; Table 2, dose 125 g a.i./ha): 4 (Level 4: growth control rate is greater than or equal to 60% and less than 85%)
- Echinochloa crusgah (activity level) (Echinochloa crusgalli; Table 2, dose 250 g a.i./ha): 4 (Level 4: growth control rate is greater than or equal to 60% and less than 85%)
- Echinochloa crusgah (activity level) (Echinochloa crusgalli; Table 2, dose 500 g a.i./ha): 4 (Level 4: growth control rate is greater than or equal to 60% and less than 85%)
- Echinochloa crusgali (activity level) (Echinochloa crusgalli; Table 3, dose 7.5 g a.i./ha): 0 (Level 0: growth control rate is less than 5%)
- Echinochloa crusgali (activity level) (Echinochloa crusgalli; Table 3, dose 15 g a.i./ha): 1 (Level 1: growth control rate is greater than or equal to 5% and less than 20%)
- Echinochloa crusgali (activity level) (Echinochloa crusgalli; Table 3, dose 30 g a.i./ha): 2 (Level 2: growth control rate is greater than or equal to 20% and less than 40%)
- Echinochloa crusgali (activity level) (Echinochloa crusgalli; Table 3, dose 60 g a.i./ha): 2 (Level 2: growth control rate is greater than or equal to 20% and less than 40%)
- Setaria viridis (activity level) (Setaria viridis; Table 3, dose 7.5 g a.i./ha): 0 (Level 0: growth control rate is less than 5%)
- Setaria viridis (activity level) (Setaria viridis; Table 3, dose 15 g a.i./ha): 0 (Level 0: growth control rate is less than 5%)
- Setaria viridis (activity level) (Setaria viridis; Table 3, dose 30 g a.i./ha): 1 (Level 1: growth control rate is greater than or equal to 5% and less than 20%)
- Setaria viridis (activity level) (Setaria viridis; Table 3, dose 60 g a.i./ha): 1 (Level 1: growth control rate is greater than or equal to 5% and less than 20%)
- Setaria viridis (activity level) (Setaria viridis; Table 3, dose 120 g a.i./ha): 2 (Level 2: growth control rate is greater than or equal to 20% and less than 40%)
- Amaranthus retroflexus (activity level) (Amaranthus retroflexus; Table 2, dose 60 g a.i./ha): 4 (Level 4: growth control rate is greater than or equal to 60% and less than 85%)
- Amaranthus retroflexus (activity level) (Amaranthus retroflexus; Table 2, dose 125 g a.i./ha): 4 (Level 4: growth control rate is greater than or equal to 60% and less than 85%)
- Amaranthus retroflexus (activity level) (Amaranthus retroflexus; Table 2, dose 250 g a.i./ha): 4 (Level 4: growth control rate is greater than or equal to 60% and less than 85%)
- Amaranthus retroflexus (activity level) (Amaranthus retroflexus; Table 2, dose 500 g a.i./ha): 4 (Level 4: growth control rate is greater than or equal to 60% and less than 85%)
- Stellaria media (activity level) (Stellaria media; Table 2, dose 60 g a.i./ha): 3 (Level 3: growth control rate is greater than or equal to 40% and less than 60%)
- Stellaria media (activity level) (Stellaria media; Table 2, dose 125 g a.i./ha): 4 (Level 4: growth control rate is greater than or equal to 60% and less than 85%)
- Stellaria media (activity level) (Stellaria media; Table 2, dose 250 g a.i./ha): 4 (Level 4: growth control rate is greater than or equal to 60% and less than 85%)
- Stellaria media (activity level) (Stellaria media; Table 2, dose 500 g a.i./ha): 4 (Level 4: growth control rate is greater than or equal to 60% and less than 85%)
- Control effect of (i) alone at corresponding dose (weeds; Cyperus difformis, (i) 1 g a.i./mu): 6.2%
- Control effect of (i) alone at corresponding dose (weeds; Cyperus difformis, (i) 5 g a.i./mu): 30.6%
- Control effect of (i) alone at corresponding dose (weeds; Echinochloa phyllopogon, (i) 1 g a.i./mu): 8.3%
- Control effect of (i) alone at corresponding dose (weeds; Echinochloa phyllopogon, (i) 2 g a.i./mu): 18.7%
- Control effect of (i) alone at corresponding dose (weeds; Echinochloa phyllopogon, (i) 3 g a.i./mu): 43.1%
- Control effect of (i) alone at corresponding dose (weeds; Leptochloa chinensis, (i) 5 g a.i./mu): 3.8%
- Control effect of (i) alone at corresponding dose (weeds; Leptochloa chinensis, (i) 15 g a.i./mu): 20.3%
- Control effect of (i) alone at corresponding dose (weeds; Monochoria vaginalis, (i) 5 g a.i./mu): 9.6%
- Control effect of (i) alone at corresponding dose (weeds; Monochoria vaginalis, (i) 6 g a.i./mu): 12.3%
- Control effect of (i) alone at corresponding dose (weeds; Monochoria vaginalis, (i) 7.5 g a.i./mu): 15.1%
- Control effect of (i) alone at corresponding dose (weeds; Monochoria vaginalis, (i) 15 g a.i./mu): 23.9%
- Control effect of (i) alone at corresponding dose (weeds; Sagittaria trifolia, (i) 1 g a.i./mu): 10.9%
- Control effect of (i) alone at corresponding dose (weeds; Sagittaria trifolia, (i) 5 g a.i./mu): 33.5%

Compound: CCCSc1c(C(F)(F)F)ccc(C(=O)Nc2nnc(C)o2)c1F [Compound 1-7]
- Abutilion theophrasti (activity level) (Abutilon theophrasti; Table 2, dose 250 g a.i./ha): 5 (Level 5: growth control rate is above 85%)
- Abutilion theophrasti (activity level) (Abutilon theophrasti; Table 2, dose 500 g a.i./ha): 5 (Level 5: growth control rate is above 85%)
- Digitaria sanguinalis (activity level) (Digitaria sanguinalis; Table 2, dose 250 g a.i./ha): 5 (Level 5: growth control rate is above 85%)
- Digitaria sanguinalis (activity level) (Digitaria sanguinalis; Table 2, dose 500 g a.i./ha): 5 (Level 5: growth control rate is above 85%)
- Echinochloa crusgah (activity level) (Echinochloa crusgalli; Table 2, dose 250 g a.i./ha): 5 (Level 5: growth control rate is above 85%)
- Echinochloa crusgah (activity level) (Echinochloa crusgalli; Table 2, dose 500 g a.i./ha): 5 (Level 5: growth control rate is above 85%)
- Amaranthus retroflexus (activity level) (Amaranthus retroflexus; Table 2, dose 250 g a.i./ha): 5 (Level 5: growth control rate is above 85%)
- Amaranthus retroflexus (activity level) (Amaranthus retroflexus; Table 2, dose 500 g a.i./ha): 5 (Level 5: growth control rate is above 85%)
- Stellaria media (activity level) (Stellaria media; Table 2, dose 250 g a.i./ha): 5 (Level 5: growth control rate is above 85%)
- Stellaria media (activity level) (Stellaria media; Table 2, dose 500 g a.i./ha): 5 (Level 5: growth control rate is above 85%)
- Indica rice (Huanghuazhan) (plant damage level) ([1]; Dose 250 g a.i./ha): 0 (Level 0: growth control rate is less than 5%)
- Japonica rice (Huaidao No. 5) (plant damage level) ([2]; Dose 250 g a.i./ha): 0 (Level 0: growth control rate is less than 5%)
- Selection index between rice and Echinochloa crusgali [3]: >5

Compound: CCCS(=O)(=O)c1c(C(F)(F)F)ccc(C(=O)Nc2nnc(C)o2)c1F [Compound 1-9]
- Abutilion theophrasti (activity level) (Abutilon theophrasti; Table 2, dose 125 g a.i./ha): 5 (Level 5: growth control rate is above 85%)
- Abutilion theophrasti (activity level) (Abutilon theophrasti; Table 2, dose 250 g a.i./ha): 5 (Level 5: growth control rate is above 85%)
- Digitaria sanguinalis (activity level) (Digitaria sanguinalis; Table 2, dose 125 g a.i./ha): 5 (Level 5: growth control rate is above 85%)
- Digitaria sanguinalis (activity level) (Digitaria sanguinalis; Table 2, dose 250 g a.i./ha): 5 (Level 5: growth control rate is above 85%)
- Echinochloa crusgah (activity level) (Echinochloa crusgalli; Table 2, dose 125 g a.i./ha): 5 (Level 5: growth control rate is above 85%)
- Echinochloa crusgah (activity level) (Echinochloa crusgalli; Table 2, dose 250 g a.i./ha): 5 (Level 5: growth control rate is above 85%)
- Amaranthus retroflexus (activity level) (Amaranthus retroflexus; Table 2, dose 125 g a.i./ha): 5 (Level 5: growth control rate is above 85%)
- Amaranthus retroflexus (activity level) (Amaranthus retroflexus; Table 2, dose 250 g a.i./ha): 5 (Level 5: growth control rate is above 85%)
- Stellaria media (activity level) (Stellaria media; Table 2, dose 125 g a.i./ha): 5 (Level 5: growth control rate is above 85%)
- Stellaria media (activity level) (Stellaria media; Table 2, dose 250 g a.i./ha): 5 (Level 5: growth control rate is above 85%)
- Indica rice (Huanghuazhan) (plant damage level) ([1]; Dose 250 g a.i./ha): 0 (Level 0: growth control rate is less than 5%)
- Japonica rice (Huaidao No. 5) (plant damage level) ([2]; Dose 250 g a.i./ha): 0 (Level 0: growth control rate is less than 5%)
- Selection index between rice and Echinochloa crusgali [3]: >5

Compound: Cc1nnc(NC(=O)c2ccc(C(F)(F)F)c(S(C)(=O)=O)c2C)o1 [Control Compound B, reference compound]
- Indica rice (Huanghuazhan) (plant damage level) ([1]; Dose 125 g a.i./ha): 3 (Level 3: growth control rate is greater than or equal to 40% and less than 60%)
- Indica rice (Huanghuazhan) (plant damage level) ([1]; Dose 250 g a.i./ha): 4 (Level 4: growth control rate is greater than or equal to 60% and less than 85%)
- Japonica rice (Huaidao No. 5) (plant damage level) ([2]; Dose 125 g a.i./ha): 3 (Level 3: growth control rate is greater than or equal to 40% and less than 60%)
- Japonica rice (Huaidao No. 5) (plant damage level) ([2]; Dose 250 g a.i./ha): 3 (Level 3: growth control rate is greater than or equal to 40% and less than 60%)
- Selection index between rice and Echinochloa crusgali [3]: 0.8

Compound: Cc1nnc(NC(=O)c2ccc(C(F)(F)F)c(N3CCCC3=O)c2Cl)o1 [Control Compound C, reference compound]
- Indica rice (Huanghuazhan) (plant damage level) ([1]; Dose 125 g a.i./ha): 5 (Level 5: growth control rate is above 85%)
- Japonica rice (Huaidao No. 5) (plant damage level) ([2]; Dose 125 g a.i./ha): 4 (Level 4: growth control rate is greater than or equal to 60% and less than 85%)
- Selection index between rice and Echinochloa crusgali [3]: 1.1

Compound: CCS(=O)(=O)c1c(C(F)(F)F)ccc(C(=O)Nc2nnc(C)o2)c1Cl [Control Compound D, reference compound]
- Indica rice (Huanghuazhan) (plant damage level) ([1]; Dose 60 g a.i./ha): 5 (Level 5: growth control rate is above 85%)
- Japonica rice (Huaidao No. 5) (plant damage level) ([2]; Dose 60 g a.i./ha): 5 (Level 5: growth control rate is above 85%)
- Selection index between rice and Echinochloa crusgali [3]: 1
